Values joined by “and” are separate entries in the source; they are usually repeats but may differ in a detail not shown here. Equal values may be shown once. Read-outs that look alike come from different tables or passages of the source.
Legend:
[1] = system: A2780; test: Modified MTT assay, A2780 (parental, MMR proficient); type: cell-based, human
Protocol: (§1) Relative drug sensitivities (Resistance Factor) and IC50 values were determined by a modified MTT assay (see, e.g., Mosmann, 1983; Plumb et al., 1989), as described below: • (1) Trypsinise a sub-confluent monolayer culture and collect cells in growth medium containing serum. Centrifuge the suspension (200 g, 5 minutes) to pellet cells, re-suspend in growth medium, and count cells. Dilute cells to a density of 5×10^3 cells/mL allowing 60 mL of cell suspension for 3 microtitre plates. Transfer cell suspension to a 10 cm petri dish, and with a multichannel pipette add 200 μL to each well of the central 10 columns of a flat bottomed 96-well plate (80 wells per plate) starting with column 2 and ending with column 11. Add 200 μL of growth medium to the 8 wells in columns 1 and 12. Put the plates in a plastic box and incubate in a humidified atmosphere at 37° C. for 2-3 days so that cells are in the exponential phase of growth for drug addition. • (2) Prepare a serial 5-fold dilution of the cytotoxic drug in growth medium to give 8 concentrations. Pipette 6 mL of growth medium in to each of 7 universal containers (30 mL). Prepare 10 mL of the highest concentration of the drug and transfer 1.5 mL of this solution to the first universal container. Mix and then transfer 1.5 mL to the next universal container. Continue until the seventh universal container is reached. The concentrations should be chosen so that the highest concentration kills most of the cells and the lowest kills none of the cells. Normally, three plates are used for each drug to give triplicate determinations within one experiment. • (3) The medium is removed from all the wells in columns 2 to 11. This can be achieved with a hypodermic needle attached to a suction line. Cells in the 8 wells in columns 2 and 11 are fed with 200 μL of fresh growth medium. The drug solutions are transferred to 10 cm petri dishes and 200 μL added to all 8 wells of a column. For ease of analysis arrange the drug solutions in order so that the highest is in column 3 down to the lowest in column 10. Plates are returned to the plastic box and incubated for 24 hours. • (4) At the end of the drug exposure period, the medium is removed from all wells containing cells and the cells are fed with 200 μL of fresh medium. • (5) The plates are fed daily for two more days. • (6) The plates are fed with 200 μL of fresh medium and 50 μL of the MTT solution (5 mg/mL in PBS) is added to all wells in columns 1 to 11. Plates are wrapped in aluminium foil and incubated for 4 hours in a humidified atmosphere at 37° C. • (7) The medium and MTT are then removed from the wells and the purple MTT-formazan crystals dissolved by addition of 200 μL of DMSO to all wells in columns 1 to 11. Glycine buffer is added (25 μL per well) to all wells containing DMSO. • (8) Absorbance is recorded at 570 nm with the wells in column 1, which contained medium and MTT but no cells used as a blank. • (9) A graph is plotted of absorbance (y-axis) against drug concentration (x-axis). The mean absorbance reading from the wells in columns 2 and 11 is used as the control absorbance and the IC50 concentration is determined as the drug concentration required to reduce the absorbance to half that of the control. IC10 or IC90 values can be determined in the same manner.
(§2) A2780/cp70 and A2780/mcp1 have lost expression of MLH1, have lost MMR activity, and have microsatellite instability compared to A2780. The CpG island at the MLH1 gene is methylated in A2780/cp70 and A2780/mcp1, but not A2780.
(§3) IC50 values (μM) for A2780, A2780/cp70, and A2780/mcp1 and Resistance Factors (RF) (the fold difference in resistance from parental A2780) were determined based on the MTT assay described above for several compounds of the present invention (including, e.g., MMR201).

[2] = system: A2780/mcp1; test: Modified MTT assay, A2780/mcp1 (cisplatin resistant, MMR deficient); type: cell-based, human; settings: 24 hour drug exposure; for IC50: MTT; for A2780/mcp1 RF (Resistance Factor): fold difference in resistance from parental A2780
Protocol: as §1, §2, §3

[3] = system: T84; test: Modified MTT assay, colon panel T84; type: cell-based
Protocol: (§4) Relative drug sensitivities (Resistance Factor) and IC50 values were determined by a modified MTT assay (see, e.g., Mosmann, 1983; Plumb et al., 1989), as described below: • (1) Trypsinise a sub-confluent monolayer culture and collect cells in growth medium containing serum. Centrifuge the suspension (200 g, 5 minutes) to pellet cells, re-suspend in growth medium, and count cells. Dilute cells to a density of 5×10^3 cells/mL allowing 60 mL of cell suspension for 3 microtitre plates. Transfer cell suspension to a 10 cm petri dish, and with a multichannel pipette add 200 μL to each well of the central 10 columns of a flat bottomed 96-well plate (80 wells per plate) starting with column 2 and ending with column 11. Add 200 μL of growth medium to the 8 wells in columns 1 and 12. […] Glycine buffer is added (25 μL per well) to all wells containing DMSO. • (8) Absorbance is recorded at 570 nm with the wells in column 1, which contained medium and MTT but no cells used as a blank. • (9) A graph is plotted of absorbance (y-axis) against drug concentration (x-axis). The mean absorbance reading from the wells in columns 2 and 11 is used as the control absorbance and the IC50 concentration is determined as the drug concentration required to reduce the absorbance to half that of the control. IC10 or IC90 values can be determined in the same manner. […]

[4] = system: SW48 (MLH1); test: Modified MTT assay, colon panel SW48; type: cell-based
Protocol: as §4

[5] = system: OVCAR3; test: Cancer cell line panel, OVCAR3 (ovary); type: cell-based
Protocol: as §4

[6] = system: OVCAR4; test: Cancer cell line panel, OVCAR4 (ovary); type: cell-based
Protocol: as §4

[7] = system: MDAMB231; test: Cancer cell line panel, MDAMB231 (breast); type: cell-based
Protocol: as §4

[8] = system: MCF7; test: Cancer cell line panel, MCF7 (breast); type: cell-based
Protocol: as §4

[9] = system: LDAN; test: Cancer cell line panel, LDAN (NSCLC); type: cell-based
Protocol: as §4

[10] = system: A549; test: Cancer cell line panel, A549 (NSCLC); type: cell-based
Protocol: as §4

[11] = system: H125; test: Cancer cell line panel, H125 (NSCLC); type: cell-based
Protocol: as §4

[12] = system: WIL; test: Cancer cell line panel, WIL (NSCLC); type: cell-based
Protocol: as §4

[13] = system: CALU; test: Cancer cell line panel, CALU (NSCLC); type: cell-based
Protocol: as §4

[14] = system: HS852; test: Cancer cell line panel, HS852 (melanoma); type: cell-based
Protocol: as §4

[15] = system: HS294; test: Cancer cell line panel, HS294 (melanoma); type: cell-based
Protocol: as §4

[16] = system: C8161; test: Cancer cell line panel, C8161 (melanoma); type: cell-based
Protocol: as §4

[17] = system: PC3; test: Cancer cell line panel, PC3 (prostate); type: cell-based
Protocol: as §4

[18] = system: PARP cleavage; test: Apoptosis as determined by PARP cleavage; type: cell-based

SMILES: N.N.[Cl][Pt][Cl] [Cisplatin, reference compound]
- IC50 ([1]; 24 hour drug exposure): 215 nM and 244 nM
- IC50 [2]: 547 nM and 672 nM
- A2780/mcp1 RF (Resistance Factor) [2]: 2.5 and 2.8
- IC50 ([3]; read-out: Cisplatin IC50, MMR proficient, p53 ?): 4230 ± 860 nM
- IC50 ([4]; read-out: Cisplatin IC50, MMR deficient, p53 wt): 1820 ± 70 nM
- IC50 ([5]; read-out: Cisplatin): 239 ± 20 nM
- IC50 ([6]; read-out: Cisplatin): 1640 ± 150 nM
- IC50 ([7]; read-out: Cisplatin): 11200 ± 700 nM
- IC50 ([8]; read-out: Cisplatin): 1780 ± 170 nM
- IC50 ([9]; read-out: Cisplatin): 1230 ± 70 nM
- IC50 ([10]; read-out: Cisplatin): 1130 ± 40 nM
- IC50 ([11]; read-out: Cisplatin): 3690 ± 430 nM
- IC50 ([12]; read-out: Cisplatin): 3940 ± 220 nM
- IC50 ([13]; read-out: Cisplatin): 7250 ± 580 nM
- IC50 ([14]; read-out: Cisplatin): 1600 ± 90 nM
- IC50 ([15]; read-out: Cisplatin): 1490 ± 80 nM
- IC50 ([16]; read-out: Cisplatin): 3460 ± 160 nM
- IC50 ([17]; read-out: Cisplatin): 2270 ± 270 nM

SMILES: CC[n+]1c(/C=C2\Sc3oc4ccccc4c3N2C)ccc2cc(C)ccc21.[I-] [MMR201]
- IC50 ([1]; Homo sapiens, A2780, 24 hour drug exposure): 58 ± 5 nM
- IC50 ([2]; Homo sapiens, A2780/mcp1): 14 ± 1 nM
- A2780/mcp1 RF (Resistance Factor) [2]: 0.24
- IC50 ([3]; Homo sapiens, MMR proficient, p53 ?, read-out: MMR201 IC50): 1470 ± 175 nM
- IC50 ([4]; Homo sapiens, MMR deficient, p53 wt, read-out: MMR201 IC50): 76.9 ± 7.3 nM
- IC50 ([5]; Homo sapiens, OVCAR-3, read-out: MMR201): 253 ± 22 nM
- IC50 ([6]; Homo sapiens, OVCAR-4, read-out: MMR201): 733 ± 41.2 nM
- IC50 ([7]; Homo sapiens, MDA-MB-231, read-out: MMR201): 235 ± 22.5 nM
- IC50 ([8]; Homo sapiens, read-out: MMR201): 870 ± 54.8 nM
- IC50 ([9]; read-out: MMR201): 114.4 ± 0.07 nM
- IC50 ([10]; Homo sapiens, read-out: MMR201): 119 ± 10.6 nM
- IC50 ([11]; Homo sapiens, NCI-H125, read-out: MMR201): 130 ± 15 nM
- IC50 ([12]; read-out: MMR201): 153 ± 13.7 nM
- IC50 ([13]; read-out: MMR201): 380 ± 7.5 nM
- IC50 ([14]; read-out: MMR201): 75.3 ± 7.1 nM
- IC50 ([15]; read-out: MMR201): 105 ± 5.1 nM
- IC50 ([16]; Homo sapiens, read-out: MMR201): 254.2 ± 0.4 nM
- IC50 ([17]; Homo sapiens, PC-3, read-out: MMR201): 531 ± 50.3 nM
- Apoptosis in MLH1 negative cells ([18]; MLH1 negative cells, PARP cleavage, 24 hours): increased apoptosis at lower drug concentrations
- Apoptosis as determined by PARP cleavage ([18]; incubation for 24 hours): induces apoptosis

From US20090247579A1, “2-[3H-THIAZOL-2-YLIDINEMETHYL]PYRIDINES AND RELATED COMPOUNDS AND THEIR USE” (CANCER RESEARCH TECHNOLOGY LIMITED, priority 2006, published 2009)
